Converted amounts (≈) assume the structure as drawn.
Legend:
Assay type in all cases: functional
KM-20L2 = experiment: Cytotoxicity against human KM20L2 cells after 48 hrs by SRB assay; settings: KM-20L2, 48 h
BXPC-3 = experiment: Cytotoxicity against human BxPC3 cells after 48 hrs by SRB assay; settings: BXPC-3, 48 h
Streptococcus pneumoniae = experiment: Antibacterial activity against Streptococcus pneumoniae ATCC 6303
Micrococcus luteus = experiment: Antibacterial activity against Micrococcus luteus Presque Isle 456
Staphylococcus aureus = experiment: Antibacterial activity against Staphylococcus aureus ATCC 29213
Enterococcus faecalis = experiment: Antibacterial activity against Enterococcus faecalis ATCC 29212
Neisseria gonorrhoeae = experiment: Antibacterial activity against Neisseria gonorrheae ATCC 49226

With `COc1cccc2c1cc(C(=O)O)c1c(C(=O)O)cc3c(c12)OCO3` [PAPILISTATIN] the GI50 (KM-20L2) was 0.096 µg/mL (≈ 0.282 µM), the GI50 (BXPC-3) was 0.093 µg/mL (≈ 0.273 µM) and the MIC (Streptococcus pneumoniae) was 32 µg/mL (≈ 94 µM). For the same compound, the MIC (Micrococcus luteus) was 16 µg/mL (≈ 47 µM), the MIC (Staphylococcus aureus) was 64 µg/mL (≈ 188 µM) and the MIC (Enterococcus faecalis) was 16 µg/mL (≈ 47 µM). It also gave an MIC (Neisseria gonorrhoeae) of 8 µg/mL (≈ 23.5 µM).

Reference: ChEMBL document CHEMBL1154896, “Antineoplastic agents. 573. isolation and structure of papilistatin from the papilionid butterfly Byasa polyeuctes termessa” (2010)
